Source: ChEMBL document CHEMBL4609989, “Synthesis and antileishmanial activity of fluorinated rhodacyanine analogues: The 'fluorine-walk' analysis” (Bioorg Med Chem, 2020)
Activity calls are given as the source filed them. The calls are words filed in the database; no cut-off is given here.

Columns and labels:
[1] = test system: Leishmania orientalis; assay: Antileishmanial activity against Leishmania orientalis MHOM/TH/2010/PCM2 axenic amastigotes at 0.25 uM incubated for 72 hrs by resazurin dye based colorimetric assay relative to control; type: functional; details: Leishmania orientalis, MHOM/TH/2010/PCM2, 72 h
[2] = test system: Leishmania martiniquensis; assay: Antileishmanial activity against Leishmania martiniquensis MHOM/MQ/92/MAR promastigote at 0.25 uM incubated for 72 hrs by resazurin dye based colorimetric assay relative to control; type: functional; details: for inhibition at 0.25 µM: Leishmania martiniquensis, MHOM/MQ/92/MAR, 72 h
[3] = test system: Leishmania martiniquensis; assay: Antileishmanial activity against Leishmania martiniquensis MHOM/MQ/92/MAR promastigote at 0.1 uM incubated for 72 hrs by resazurin dye based colorimetric assay relative to control; type: functional; details: for inhibition at 0.1 µM: Leishmania martiniquensis, MHOM/MQ/92/MAR, 72 h
[4] = test system: J774.A1; assay: Cytotoxicity against mouse J774A.1 cells assessed as reduction in cell viability at 4.0 uM incubated for 72 hrs by colorimetric assay relative to control; type: cell-based; details: j774.a1, 72 h
[5] = test system: Leishmania orientalis; assay: Antileishmanial activity against Leishmania orientalis MHOM/TH/2010/PCM2 promastigote at 0.25 uM incubated for 72 hrs by resazurin dye based colorimetric assay relative to control; type: functional; details: Leishmania orientalis, MHOM/TH/2010/PCM2, 72 h
[6] = test system: J774.A1; assay: Cytotoxicity against mouse J774A.1 cells assessed as reduction in cell viability at 0.25 uM incubated for 72 hrs by colorimetric assay relative to control; type: cell-based; details: j774.a1, 72 h
[7] = test system: Leishmania martiniquensis; assay: Antileishmanial activity against Leishmania martiniquensis MHOM/MQ/92/MAR promastigote incubated for 72 hrs by resazurin dye based colorimetric assay; type: functional, organism-based; details: Leishmania martiniquensis, MHOM/MQ/92/MAR, 72 h
[8] = test system: Leishmania orientalis; assay: Antileishmanial activity against Leishmania orientalis MHOM/TH/2010/PCM2 promastigote at 0.1 uM incubated for 72 hrs by resazurin dye based colorimetric assay relative to control; type: functional; details: for inhibition at 0.1 µM: Leishmania orientalis, MHOM/TH/2010/PCM2, 72 h
[9] = test system: Leishmania orientalis; assay: Antileishmanial activity against Leishmania orientalis MHOM/TH/2010/PCM2 axenic amastigotes incubated for 72 hrs by resazurin dye based colorimetric assay; type: functional, organism-based; details: Leishmania orientalis, MHOM/TH/2010/PCM2, 72 h
[10] = test system: Leishmania orientalis; assay: Antileishmanial activity against Leishmania orientalis MHOM/TH/2010/PCM2 promastigote incubated for 72 hrs by resazurin dye based colorimetric assay; type: functional, organism-based; details: Leishmania orientalis, MHOM/TH/2010/PCM2, 72 h

SMILES	inhibition at 0.25 µM [1]	inhibition [2]	inhibition [3]	Activity [4]	inhibition at 0.25 µM [5]	Activity [6]	IC50 [7]	inhibition [8]	inhibition at 0.25 µM [2]	inhibition at 0.1 µM [3]	inhibition at 0.1 µM [8]	IC50 [9]	IC50 [10]
CCCCCCCCCCCCCCCCOP(=O)([O-])OCC[N+](C)(C)C [MILTEFOSINE]	24.9%	inactive	inactive	12.4%	4%	7.3%	15800 nM	inactive	–	–	–	–	–
CCn1c(=O)/c(=C/C=C2\Sc3cccc(F)c3N2C)s/c1=C\c1sc2ccccc2[n+]1C.[Cl-]	40.2%	–	–	13.4%	84.2%	Non-Toxic	–	–	73%	30%	33%	–	–
CCn1c(=O)/c(=C/C=C2\Sc3cc(C(F)(F)F)ccc3N2C)s/c1=C\c1sc2ccc(F)cc2[n+]1C.[Cl-]	68.4%	–	–	52.2%	33.3%	13.3%	–	inactive	39.2%	5.9%	–	–	–
C[C@@H]1[C@H](O)[C@@H](C)/C=C/C=C/C=C/C=C/C=C/C=C/C=C/[C@H](O[C@@H]2O[C@H](C)[C@@H](O)[C@H](N)[C@@H]2O)C[C@@H]2O[C@](O)(C[C@@H](O)C[C@@H](O)[C@H](O)CC[C@@H](O)C[C@@H](O)CC(=O)O[C@H]1C)C[C@H](O)[C@H]2C(=O)O [AMPHOTERICIN B]	91.1%	–	–	16.7%	96.7%	Non-Toxic	31 nM	–	97.5%	94.2%	96.2%	108 nM	23 nM
CCn1c(=O)/c(=C/C=C2\Sc3ccc(F)cc3N2C)s/c1=C\c1sc2cc(F)ccc2[n+]1C.[Cl-]	88.9%	–	–	21%	79.3%	Non-Toxic	–	–	75.9%	43.9%	20.4%	81 nM	–
CCn1c(=O)/c(=C/C=C2\Sc3ccccc3N2C)s/c1=C\c1sc2ccccc2[n+]1C.[Cl-]	36.8%	–	–	19.2%	81.5%	Non-Toxic	658 nM	–	70.8%	21%	11.5%	909 nM	302 nM
CCn1c(=O)/c(=C/C=C2\Sc3cc(F)ccc3N2C)s/c1=C\c1sc2ccccc2[n+]1C.[Cl-]	91.2%	–	–	61.8%	96%	Non-Toxic	–	–	87.8%	40.3%	60%	223 nM	88 nM
CCn1c(=O)/c(=C/C=C2\Sc3ccccc3N2C)s/c1=C\c1sc2ccc(F)cc2[n+]1C.Cc1ccc(S(=O)(=O)[O-])cc1	91%	–	–	31.1%	91.7%	Non-Toxic	76 nM	–	89.5%	85.4%	78.8%	110 nM	98 nM
CCn1c(=O)/c(=C/C=C2\Sc3ccccc3N2C)s/c1=C\c1sc2cccc(F)c2[n+]1C.[Cl-]	58.2%	–	–	24.9%	92.9%	Non-Toxic	–	–	64.1%	37.7%	67.5%	–	65 nM
CCn1c(=O)/c(=C/C=C2\Sc3c(F)cccc3N2C)s/c1=C\c1sc2ccccc2[n+]1C.[Cl-]	47.9%	–	–	72.8%	75.4%	Non-Toxic	272 nM	inactive	92.7%	56.1%	–	–	–
